Key:
[1] = tested on: uveal melanoma (UM 92.1) cell line; experiment: IncuCyte proliferation assay (% cell confluency); type: cell-based; settings: UM 92.1 (GNAQ mutant), increasing concentrations of Tigecycline, 72 h, FIG. 4
Experimental: (§1) For IncuCyte Proliferation Assays, cells were plated in 96-well plates (TPP) at the appropriate density (between 2.5×10^3, to 1.5×10^4). Cells were treated with increasing amounts of Tigecycline or Doxycycline and cultured for 72 h. Apoptotic cells were labelled with the IncuCyte Caspase 3/7 Green Apoptosis Assay Reagent (Essen BioScience). Four images per well were taken at 2-hour intervals using an IncuCyte ZOOM system (Essen BioScience). The percentage of cell confluency and fluorescent green counts indicating apoptotic cells were measured and analysed by the IncuCyte ZOOM software.

[2] = tested on: uveal melanoma cell line (UM92.1); experiment: IncuCyte Caspase 3/7 Green apoptosis assay; type: cell-based; settings: UM92.1, increasing concentrations of Tigecycline
Experimental: as §1

[3] = tested on: uveal melanoma PDX model Mel-077; experiment: Uveal melanoma PDX experiment, tumour volume; type: in vivo; settings: Mel-077 PDX mice, Tigecycline 50 mg/kg daily i.p. monotreatment vs vehicle (DMSO), FIG. 5
Experimental: Tumour pieces were implanted subcutaneously in the interscapular fat pad of female NMRI nude, 4-week-old females. Once tumours reached 250 mm^3, the mice were enrolled into treatment cohorts. Mice were treated with Tigecycline (50 mg/kg) administered by daily i.p. injection. No specific randomization method was used.

With `CN(C)c1cc(NC(=O)CNC(C)(C)C)c(O)c2c1C[C@H]1C[C@H]3[C@H](N(C)C)C(O)=C(C(N)=O)C(=O)[C@@]3(O)C(O)=C1C2=O` [Tigecycline] the “cell growth (measured as % of cell confluency)” value [1] was “significant and dose-dependent decrease in cell growth”, the “apoptosis (activated caspase 3/7 staining)” value [2] was “no increase in apoptosis” and the “tumour growth / progression (tumour volume)” value [3] was “sufficient to stabilise tumour growth and significantly delay progression”.

— US20220211726A1, “UVEAL MELANOMA TREATMENT” (Katholieke Universiteit Leuven, priority 2019, published 2022)
